# In patent US20090281120A1, “BICYCLIC HETEROCYCLIC COMPOUND” (ONO PHARMACEUTICAL CO., LTD, priority 2005, published 2009):
# How the values were obtained:
# human CRF receptor I [1] = target: T1, human CRF receptor I (Homo sapiens, UniProt P34998); assay: Receptor antagonistic activity (cyclic AMP assay); type: cell-based; conditions: forced expression cell strain of human CRF receptor I; stimulated with human/rat CRF; 37° C., 15 minutes; read-out: antagonistic activity against CRF IC50 value (accumulated cyclic AMP)
# T1 construct: expressed in transfected cells; host or cells: CHO-K1
# T1 sequence (P34998 24-415): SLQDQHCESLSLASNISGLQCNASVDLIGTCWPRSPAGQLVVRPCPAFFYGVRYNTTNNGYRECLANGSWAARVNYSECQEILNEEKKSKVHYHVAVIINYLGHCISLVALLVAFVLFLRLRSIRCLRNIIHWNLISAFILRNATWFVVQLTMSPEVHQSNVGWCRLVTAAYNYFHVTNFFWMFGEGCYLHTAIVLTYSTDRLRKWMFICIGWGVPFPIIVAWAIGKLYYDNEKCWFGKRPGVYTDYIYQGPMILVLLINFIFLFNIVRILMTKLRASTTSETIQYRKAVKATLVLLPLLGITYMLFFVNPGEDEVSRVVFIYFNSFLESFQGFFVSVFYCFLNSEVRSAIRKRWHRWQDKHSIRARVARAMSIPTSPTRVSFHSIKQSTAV
# Method: The forced expression cell strain of the human CRF receptor I was cultured at 37° C. under 5% carbon dioxide and 95% air by using a Ham's F-12 medium (F-12 nutrient mixture) containing 10% bovine fetal serum and 1% antibiotic substance-antifungal agent. On the previous day before the cyclic AMP was measured, the cells were inoculated into a 96-well plate in an amount of 1×10^4 cell/well. On the measurement day, the cells were washed twice with a Ham's F-12 medium, whereby a solution of Ham's F-12 medium/1 mM 3-isobutyl-1-methylxanthine (assay medium) (178 μL) was added to each well. After the incubation at 37° C. for 10 minutes, test drug solutions (2 μL) in various concentrations were added thereto, or DMSO (2 μL) was added to a CRF group and a blank group. An assay medium (20 μL) containing 10 nM human/rat CRF was added to wells of a compound group and the CRF group. An assay medium (20 μL) containing 0.00001% acetic acid was added to the blank group. Each group was further incubated at 37° C. for 15 minutes. […] The accumulated cyclic AMP amounts were calculated by subtracting mean values of corresponding 2 wells in the blank group from that of 2 wells. The IC50 values were calculated with non-linear regression analysis by defining logarithm concentration of the compound as independent variable and an accumulated cyclic AMP amount as dependent variable.
# human CRF receptor I [2] = target: T1, human CRF receptor I; assay: Binding assay (125I-CRF, membrane fraction); conditions: 125I-CRF 0.25 nM; membrane fraction of CHO-K1 cells forcedly expressing human CRF receptor I; room temperature, 2 hours
# Method: The forced-expression cell strain of the human CRF receptor I (parent strain is CHO-K1 cell) was cultured until the cell was confluent and collected with a scraper. The collected cells were washed twice with PBS, and were suspended with an ice-colded binding assay buffer (Tris-HCl (50 mM, pH 7.0), EDTA (2 mM, pH 8.0), and MgCl2 (10 mM))). After fractured with a dounce-type homogenizer, the suspended cells were centrifuged at 10,000 g, and a membrane fraction was collected. The collected membrane fraction was resuspended with a little amount of the binding assay buffer, thereafter diluted with the binding assay buffer so as to have a concentration of 1 mg/mL. The obtained membrane fraction was used for a binding assay.
# ^125I-CRF was diluted with the binding assay buffer so as to have a concentration of 0.5 nM, whereby 50 μL of the diluted ^125I-CRF was added to a siliconized 1.5-mL tube. Next, test drugs diluted at appropriate times, such as DMSO (for general binding) or 100 μM of CRF (for non-specific binding), was added to a […]. Finally, 50 μL of the membrane fraction was added thereto and the reaction was started (final concentration of ^125I-CRF was 0.25 nM). The tube was incubated at room temperature for 2 hours. […] A membrane binding count was measured using a γ counter.
# The specific binding count was obtained by subtracting the non-specific count from the measured count.
smiles,measurement,setting,value
"CCC(CC)c1cc(C)c2nc(-c3ccc(OC)cc3Cl)c(C)n2c1 [Example 7, 2-(2-chloro-4-methoxyphenyl)-6-(1-ethylpropyl)-3,8-dimethylimidazo[1,2-a]pyridine]",IC50,human CRF receptor I [1],41 nM
same,IC50,human CRF receptor I [2],12 nM
